{"source": "paper PMC7915732", "about": "“Screening of Yeast Display Libraries of Enzymatically Treated Peptides to Discover Macrocyclic Peptide Ligands” (International Journal of Molecular Sciences, 2021)", "key": {"TEV protease [1]": {"system": "TEV protease", "experiment": "TEV protease cleavage, intracellular transglutaminase co-expression, flow cytometry", "conditions": "48 h induction", "text": "Screening of Yeast Display Libraries of Enzymatically Treated\nPeptides to Discover Macrocyclic Peptide Ligands\nJohn Bowen, John Schneible, Kaitlyn Bacon, Collin Labar, Stefano Menegatti and Balaji M. Rao […]\nPlasmid construction for intracellular […]\npeptide precursors on the surface […]\nexpression of the transglutaminase en-zyme downstream of the Gal10 promoter. […]\nand inserted between the AgeI and KpnI sites of […]\nunder the direction of the Gal1 promoter and transglutaminase under the direction of the Gal10 promoter. […]\na 6 base pair oligonucleotide encoding the Kex2 recognition site between the pro and active transglutaminase sequence\n50 ng of purified PCR product was treated with 1 […]\nperature followed by incubation\nDNA was then treated for 5 min at room\n(New England Biolabs) prior to transformation into electrocompe- […]\nintroduce a point mutation […]\nwith an alanine (A) residue\n, followed by the treatments with […]\nprior to kinase, ligase, and DpnI treatment\nEvaluation of intracellular transglutaminase […]\ninduction, a subset of the cells was treated with TEV protease as described in Section 2.3 to evaluate the extent of putative peptide cyclization. […] Induced cells that were not exposed to TEV protease were also analyzed for comparison. […]\nS.1.5. […] The enrich-ment of peptide binders targeting N-terminal YAP between the screening rounds was evaluated via flow cytometry. […]"}, "transglutaminase": {"system": "transglutaminase", "experiment": "Flow cytometry detection of c-myc tag after extracellular transglutaminase treatment", "conditions": "1 μM transglutaminase overnight, 37 °C, PBS pH 6, three independent replicates", "text": "In this study, we adopted the sequence […] as a model linear precursor to evaluate the efficiency of transglutaminase-mediated cyclization on the surface of yeast cells; this peptide, in fact, served as model substrate in prior work on transglutaminase-mediated cyclization. Specifically, we designed a plasmid construct to express the lead sequence […] as an Aga2p fusion on the surface of Saccharomyces cerevisiae cells. Together with the model peptide, the Aga2p fusion construct contains c-myc and HA epitope tags as well as a tobacco etch virus (TEV) protease signal recognition sequence (Figure 1B). […]\n(§1) Yeast cells displaying linear peptide precursors (model sequence […] or 8-mer library sequences) fused to specific epitope tags (HA and c-myc tags for model sequence […]; HA and His tags for library cells) were induced. […] The non-fluorescently conjugated primary antibodies were detected by labeling with a 1:250 dilution of goat-anti-chicken antibody (Immunoreagents, Raleigh, NC, USA) or donkey-anti-rabbit (Immunoreagents, Raleigh, NC, USA) labeled with Alexa Fluor 488 (green), respectively. […] At least 50,000 cells from each sample were analyzed using a MACSQuant VYB Cytometer (Miltenyi Biotec, Bergisch Gladbach, Germany))."}, "TEV protease [2]": {"system": "TEV protease", "experiment": "Cleavage of yeast-displayed peptide by TEV protease, flow cytometry", "conditions": "TEV 3 μM overnight, 37 °C, PBSCl pH 8, three independent replicates", "text": "We further evaluated the alleged cyclization yield by assessing the extent of cleavage of transglutaminase-treated vs. untreated peptide constructs from yeast cells by TEV protease. The latter recognizes the sequence ENLYFQ-G/S and cleaves between the Q and G/S residues. We hypothesize that peptide modifications—such as cyclization –inhibit TEV protease from interacting with its recognition sequence included between the construct’s His tag and HA tag. Accordingly, yeast cells expressing the linear peptide precursor—that were either treated with transglutaminase or left untreated—were incubated with TEV protease, and the binding of antibodies targeting the HA and c-myc tags was quantified via flow cytometry. […]\nas §1, with “Germany)). […]” for “Germany)).”"}, "N-terminal YAP (N-YAP)": {"biological_target": "T1, N-terminal YAP (N-YAP) (Homo sapiens, UniProt P46937)", "T1 construct": "which affords the expression of N-terminal YAP (AAs 1–291); made in house; host or cells: Rosetta E. coli", "T1 sequence (P46937 1-291)": "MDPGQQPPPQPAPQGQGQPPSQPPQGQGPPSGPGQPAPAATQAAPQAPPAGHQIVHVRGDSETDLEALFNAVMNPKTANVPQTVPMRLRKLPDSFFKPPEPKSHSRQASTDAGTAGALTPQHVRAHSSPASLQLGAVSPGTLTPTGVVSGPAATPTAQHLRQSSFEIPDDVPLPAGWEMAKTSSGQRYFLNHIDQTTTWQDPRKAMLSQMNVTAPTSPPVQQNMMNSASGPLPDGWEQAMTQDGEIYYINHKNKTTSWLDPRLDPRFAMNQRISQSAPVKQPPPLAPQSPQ", "experiment": "Yeast surface titration (yeast-displayed peptide, soluble biotinylated N-terminal YAP)", "assay_type": "binding", "conditions": "linear peptide, no transglutaminase", "procedure": "(§2) The binding affinity of cyclo[E-[…]-K] for N-terminal YAP and WW-YAP was characterized using a yeast surface titration method developed in prior work. Specifically, yeast cells displaying (putative) cyclo[E-[…]-K] were incubated with soluble, biotinylated N-terminal YAP or WW-YAP to generate binding isotherms; the fraction of cell surface fusions bound by the biotinylated target protein was quantified via immunofluorescent detection of SA-PE (Figure 4). The resulting data were fit to a monovalent binding isotherm to estimate the binding affinity (KD) of the peptide (Table 1). […]\n(§3) Figure 4 Surface titrations of (A) yeast cells displaying (putative) cyclo[E-[…]-K] with the WW domain of YAP (WW-YAP, black circles) and bovine serum albumin (BSA, green diamonds); (B) yeast cells displaying the linear peptide sequence […] with WW-YAP; (C) yeast cells displaying (putative) cyclo[E-[…]-K] with N-terminal-YAP (N-YAP, black circles) and BSA (green diamonds); and (D) yeast cells displaying the linear peptide sequence […] with N-YAP. The binding of each biotinylated protein was detected using SA-PE followed by flow cytometry analysis. […]\n(§4) Yeast cells encoding the linear precursor […] were induced. […] The cells were then analyzed by flow cytometry as described in [21, 50]. A SA-PE only labeling was also carried out to quantify the mean background fluorescence. […]"}, "[3]": {"biological_target": "T2, WW domains of YAP (WW-YAP) (Homo sapiens, UniProt P46937)", "T2 construct": "which affords the expression of the WW domains of YAP (AAs 165–271); made in house; host or cells: Rosetta E. coli", "T2 sequence (P46937 165-271)": "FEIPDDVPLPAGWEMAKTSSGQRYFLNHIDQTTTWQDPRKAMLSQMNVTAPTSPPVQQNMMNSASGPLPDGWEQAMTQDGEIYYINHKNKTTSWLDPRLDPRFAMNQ", "experiment": "Yeast surface titration (yeast-displayed peptide, soluble biotinylated WW-YAP)", "assay_type": "binding", "set-up": "key to KD (apparent) WW-YAP: N/D: not detectable; L/B: low binding", "conditions": "for binding to WW-YAP (in words): linear peptide, no transglutaminase", "procedure": "The binding affinity of cyclo[E-[…]-K] for N-terminal YAP and WW-YAP was characterized using a yeast surface titration method developed in prior work. Specifically, yeast cells displaying (putative) cyclo[E-[…]-K] were incubated with soluble, biotinylated N-terminal YAP or WW-YAP to generate binding isotherms; the fraction of cell surface fusions bound by the biotinylated target protein was quantified via immunofluorescent detection of SA-PE (Figure 4). The resulting data were fit to a monovalent binding isotherm to estimate the binding affinity (KD) of the peptide (Table 1). Binding isotherms were also generated using BSA (Figure 4A,C), to characterize the binding selectivity, as well as for cells displaying the linear precursor ([…]), to evaluate the effect of cyclization on the binding activity of the identified peptide sequence (Figure 4B,D).\nas §3\nYeast cells encoding the linear precursor […] were induced. […] The cells were then analyzed by flow cytometry as described in [21, 50]. A SA-PE only labeling was also carried out to quantify the mean background fluorescence. […] The values of KD were estimated using Equation (1):(1) F=Fmax[L]o/KD+[L]o where F is the background subtracted mean fluorescence intensity, [L]o is the concentration of soluble target protein used for labeling, and Fmax is the background subtracted fluorescence intensity when surface-saturation is obtained. Fmax was set as the highest value of fluorescence observed in each data set. […]"}, "[4]": {"biological_target": "bovine serum albumin (BSA) (Bos taurus, UniProt P02769)", "sequence (P02769 25-607)": "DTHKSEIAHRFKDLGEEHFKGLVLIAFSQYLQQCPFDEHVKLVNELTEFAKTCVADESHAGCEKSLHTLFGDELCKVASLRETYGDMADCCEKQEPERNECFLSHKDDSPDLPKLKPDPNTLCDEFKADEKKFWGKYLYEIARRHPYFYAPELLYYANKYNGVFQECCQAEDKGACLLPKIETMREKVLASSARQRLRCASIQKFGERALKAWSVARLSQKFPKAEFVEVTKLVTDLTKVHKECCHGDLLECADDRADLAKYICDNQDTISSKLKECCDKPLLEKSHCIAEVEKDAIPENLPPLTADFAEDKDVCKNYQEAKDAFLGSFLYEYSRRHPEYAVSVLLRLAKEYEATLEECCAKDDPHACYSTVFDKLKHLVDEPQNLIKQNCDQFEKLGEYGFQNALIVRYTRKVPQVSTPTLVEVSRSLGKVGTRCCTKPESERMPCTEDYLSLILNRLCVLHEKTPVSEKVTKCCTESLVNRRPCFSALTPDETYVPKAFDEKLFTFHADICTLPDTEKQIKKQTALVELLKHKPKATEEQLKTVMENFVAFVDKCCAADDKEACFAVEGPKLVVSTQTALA", "experiment": "Yeast surface titration with biotinylated BSA (selectivity control)", "assay_type": "binding", "conditions": "Figure S7A, intracellular transglutaminase route", "procedure": "as §2, §3, §4"}}, "data": [{"substance": "ALASGSRGGG [active TG, Q-to-A lead/c-myc]", "values": [{"measurement": "c-myc detection after TEV protease (intracellular constructs)", "setting": "TEV protease [1]", "value": "significantly lower binding"}]}, {"substance": "ALQSGSRGGG-EQKLISEEDL [model peptide]", "values": [{"measurement": "c-myc signal change on transglutaminase treatment", "setting": "transglutaminase", "value": "a notable decrease in the c-myc signal"}, {"measurement": "c-myc level after TEV protease, transglutaminase-treated", "setting": "TEV protease [2]; transglutaminase-treated", "value": "only a slight decrease"}, {"measurement": "c-myc level after TEV protease, no transglutaminase", "setting": "TEV protease [2]; untreated with transglutaminase", "value": "significant decrease in fluorescence"}]}, {"substance": "QLYLAYPAHK", "values": [{"measurement": "binding to N-terminal YAP (in words)", "setting": "N-terminal YAP (N-YAP)", "value": "shown to bind to N-terminal YAP"}, {"measurement": "binding to WW-YAP (in words)", "setting": "[3]; listed as linear form of the peptide", "value": "not WW-YAP"}, {"measurement": "binding to WW-YAP (in words)", "setting": "[3]; listed as linear precursors", "value": "much lower binding affinity"}, {"measurement": "KD (apparent) WW-YAP", "setting": "[3]; monovalent binding isotherm, 1 h at 4 °C, 0.1% PBSA, SA-PE flow cytometry, average of three independent replicates ± one standard error", "value": "L/B"}]}, {"substance": "cyclo[E-VQCRGKGEQ-K] (sidechain bridge or staple) [putative cyclic peptide from intracellular transglutaminase library]", "values": [{"measurement": "binding specificity N-terminal YAP vs. BSA (in words)", "setting": "[4]", "value": "selective binder for N-terminal YAP"}]}]}
